# Source: patent US5284853A, “Angiotensin II receptor blocking 2,3,6 substituted quinazolinones” (American Cyanamid Company, priority 1993, dated 1994)
# Several values for one entry are separate records, joined by “and”; a condition that tells them apart may be missing. Identical values can stand only once.
# Tested on: Angiotensin II (AII) vasopressor response
# Experiment: AII Challenge: antagonism of the angiotensin II vasopressor response in conscious SHR
# Format: in vivo, Spontaneously hypertensive rats (Male okamoto-Aoki SHR)
# Settings: for Average Change / Inhibition: n = 2; for Change / Control Before AII / Response After AII: per rat
# [1] = 5 mg/kg I.V., AII 0.05 mcg/kg IV, 30 min post dose
# [2] = 5 mg/kg I.V., AII 0.05 mcg/kg IV, 60 min post dose
# [3] = 5 mg/kg I.V., AII 0.05 mcg/kg IV, 90 min post dose
# [4] = 5 mg/kg I.V., AII 0.05 mcg/kg IV, 120 min post dose
# [5] = 5 mg/kg I.V., AII 0.05 mcg/kg IV, 180 min post dose
# [6] = 5 mg/kg I.V., AII 0.1 mcg/kg IV, 30 min post dose
# [7] = 5 mg/kg I.V., AII 0.1 mcg/kg IV, 60 min post dose
# [8] = 5 mg/kg I.V., AII 0.1 mcg/kg IV, 90 min post dose
# [9] = 5 mg/kg I.V., AII 0.1 mcg/kg IV, 120 min post dose
# [10] = 5 mg/kg I.V., AII 0.1 mcg/kg IV, 180 min post dose
# [11] = 15 mg/kg I.V., AII 0.05 mcg/kg IV, 30 min post dose
# [12] = 15 mg/kg I.V., AII 0.05 mcg/kg IV, 60 min post dose
# [13] = 15 mg/kg I.V., AII 0.05 mcg/kg IV, 90 min post dose
# [14] = 15 mg/kg I.V., AII 0.05 mcg/kg IV, 120 min post dose
# [15] = 15 mg/kg I.V., AII 0.05 mcg/kg IV, 180 min post dose
# [16] = 15 mg/kg I.V., AII 0.1 mcg/kg IV, 30 min post dose
# [17] = 15 mg/kg I.V., AII 0.1 mcg/kg IV, 60 min post dose
# [18] = 15 mg/kg I.V., AII 0.1 mcg/kg IV, 90 min post dose
# [19] = 15 mg/kg I.V., AII 0.1 mcg/kg IV, 120 min post dose
# [20] = 15 mg/kg I.V., AII 0.1 mcg/kg IV, 180 min post dose
smiles,measurement,setting,value
CCCCc1nc2ccc(C3CC(c4ccc(C)o4)=NO3)cc2c(=O)n1Cc1ccc(-c2ccccc2-c2nnn[nH]2)cc1 (stereo not shown) [Example 19],Average Change,[1],15.5 mmhg
same,Inhibition,[1],72%
same,Change,[1],11 mmhg and 20 mmhg
same,Control Before AII,[1],165 mmhg and 200 mmhg
same,Response After AII,[1],176 mmhg and 180 mmhg
same,Average Change,[2],15 mmhg
same,Inhibition,[2],73%
same,Change,[2],20 mmhg and 10 mmhg
same,Control Before AII,[2],160 mmhg and 195 mmhg
same,Response After AII,[2],180 mmhg and 205 mmhg
same,Average Change,[3],20 mmhg
same,Inhibition,[3],64%
same,Change,[3],25 mmhg and 15 mmhg
same,Control Before AII,[3],155 mmhg and 190 mmhg
same,Response After AII,[3],180 mmhg and 205 mmhg
same,Average Change,[4],25 mmhg
same,Inhibition,[4],55%
same,Change,[4],35 mmhg and 15 mmhg
same,Control Before AII,[4],150 mmhg and 175 mmhg
same,Response After AII,[4],185 mmhg and 190 mmhg
same,Average Change,[5],25 mmhg
same,Inhibition,[5],55%
same,Change,[5],33 mmhg and 17 mmhg
same,Control Before AII,[5],165 mmhg and 185 mmhg
same,Response After AII,[5],198 mmhg and 202 mmhg
same,Average Change,[6],17.5 mmhg
same,Inhibition,[6],83%
same,Change,[6],20 mmhg and 15 mmhg
same,Control Before AII,[6],160 mmhg and 205 mmhg
same,Response After AII,[6],180 mmhg and 220 mmhg
same,Average Change,[7],21 mmhg
same,Inhibition,[7],68%
same,Change,[7],25 mmhg and 17 mmhg
same,Control Before AII,[7],160 mmhg and 193 mmhg
same,Response After AII,[7],185 mmhg and 210 mmhg
same,Average Change,[8],24 mmhg
same,Inhibition,[8],63%
same,Change,[8],25 mmhg and 23 mmhg
same,Control Before AII,[8],175 mmhg and 187 mmhg
same,Response After AII,[8],200 mmhg and 210 mmhg
same,Average Change,[9],22.5 mmhg
same,Inhibition,[9],65%
same,Change,[9],20 mmhg and 25 mmhg
same,Control Before AII,[9],165 mmhg and 175 mmhg
same,Response After AII,[9],185 mmhg and 200 mmhg
same,Average Change,[10],27.5 mmhg
same,Inhibition,[10],58%
same,Change,[10],25 mmhg and 30 mmhg
same,Control Before AII,[10],170 mmhg and 185 mmhg
same,Response After AII,[10],195 mmhg and 215 mmhg
same,Average Change,[11],5 mmhg
same,Inhibition,[11],83%
same,Change,[11],0 mmhg and 10 mmhg
same,Control Before AII,[11],165 mmhg and 150 mmhg
same,Response After AII,[11],165 mmhg and 160 mmhg
same,Average Change,[12],10 mmhg
same,Inhibition,[12],67%
same,Change,[12],10 mmhg
same,Control Before AII,[12],155 mmhg and 150 mmhg
same,Response After AII,[12],165 mmhg and 160 mmhg
same,Average Change,[13],5 mmhg
same,Inhibition,[13],83%
same,Change,[13],5 mmhg
same,Control Before AII,[13],155 mmhg and 150 mmhg
same,Response After AII,[13],160 mmhg and 155 mmhg
same,Average Change,[14],7.5 mmhg
same,Inhibition,[14],75%
same,Change,[14],5 mmhg and 10 mmhg
same,Control Before AII,[14],150 mmhg
same,Response After AII,[14],155 mmhg and 160 mmhg
same,Average Change,[15],7.5 mmhg
same,Inhibition,[15],75%
same,Change,[15],0 mmhg and 15 mmhg
same,Control Before AII,[15],160 mmhg and 140 mmhg
same,Response After AII,[15],160 mmhg and 155 mmhg
same,Average Change,[16],5 mmhg
same,Inhibition,[16],89%
same,Change,[16],0 mmhg and 10 mmhg
same,Control Before AII,[16],165 mmhg and 160 mmhg
same,Response After AII,[16],165 mmhg and 170 mmhg
same,Average Change,[17],5 mmhg
same,Inhibition,[17],89%
same,Change,[17],0 mmhg and 10 mmhg
same,Control Before AII,[17],165 mmhg and 160 mmhg
same,Response After AII,[17],165 mmhg and 170 mmhg
same,Average Change,[18],7.5 mmhg
same,Inhibition,[18],83%
same,Change,[18],10 mmhg and 5 mmhg
same,Control Before AII,[18],155 mmhg and 150 mmhg
same,Response After AII,[18],165 mmhg and 155 mmhg
same,Average Change,[19],7.5 mmhg
same,Inhibition,[19],83%
same,Change,[19],10 mmhg and 5 mmhg
same,Control Before AII,[19],155 mmhg
same,Response After AII,[19],165 mmhg and 160 mmhg
same,Average Change,[20],10 mmhg
same,Inhibition,[20],78%
same,Change,[20],0 mmhg and 20 mmhg
same,Control Before AII,[20],170 mmhg and 150 mmhg
same,Response After AII,[20],170 mmhg
